Data reported in patent US6399568B1, “Cyclic tetrapeptide derivatives and medicinal use thereof” (Japan Energy Corporation, priority 1997, dated 2002).
Where two headings read alike, the source gives them in different places. Non-standard residues stand in square brackets, D forms with d. Residues, ends and D or L forms follow the SMILES beside them. *: point of attachment. Aoe = N[C@@H](CCCCCC(=O)[C@@H]1CO1)C(=O)O; Asu = N[C@@H](CCCCCC(=O)O)C(=O)O; dPip = O=C(O)[C@H]1CCCCN1; Boc = CC(C)(C)OC(=O)*; Aib = CC(C)(N)C(=O)O; NHOH = ON*

Columns and labels:
B16/BL6 cells [1] = test: MHC class-I molecule expression promoting activity; assay type: cell-based, mouse; conditions: for MHC class-I molecule expression promoting action: FIGS. 3 and 4, dependence on concentration of addition; for Twice Promoting Concentration Cx2: concentration at which MHC class-I expression is twice that without addition; for Twice Promoting Concentration Cx2 / conc. for 2-fold expression (nM) mean: 72 hours; for conc. for 2-fold expression (nM) mean: mean of a plurality of assays
Method: The cancer cells used were mouse melanoma cells, B16/BL6 cells, provided by, the National Cancer Institute, U.S.A. Said cells were cultivated in MEM media supplemented with 10% FBS at 37° C. in the presence of 5% carbon dioxide in an humidified incubator.
A compound to be tested was preliminarily dissolved in dimethyl sulfoxide (DMSO) and adjusted to a concentration of 100 mM or 10 mM (source solution).
Said B16/BL6 cells were inoculated on 96 well microplate at a cell density of 5000 cells per well, each well containing 200 μl of said medium. […] Thereafter, each well was once washed with PBS (phosphate buffered saline) and floating cells and the medium were removed. Then, the well was treated with 0.1% glutaraldehyde solution for 3 minutes to fix the cells.
The amount of MHC class-I molecule expressed on the surface of the fixed cells was measured by the following method. Anti-H-2K^bD^bD^d antibody, which is an antibody against mouse MHC classI molecule (commercially available from Meiji Milk Co., Ltd), was used as a primary antibody, biotinylated anti-mouse IgG+M (commercially available from Chemicon) was used as a secondary antibody, and streptavidin-β-galactosidase conjugate (commercially available from BRL) was reacted as a labelling enzyme. The amount of the thus labelled enzyme β-galactosidase was measured in a microplate reader by recording the fluorescent intensity (excitation: 365 nm, fluorescence: 450 nm) derived from the enzymaticreaction product using 4-methylumbelliferyl-β-D-galactoside (commercially available from Nacalai Tesque) as a substrate. […] The value obtained by subtracting said background level from the, actually measured value (an apparent value including the background level) was the true measurement reflecting the amount of expressed MHC class-I molecule.
A group without the addition of any compound to be tested was used as a reference group and the measurement of MHC class-I molecule expressed in said group was used as a standard value. The amount of MHC class-I molecule expressed at a concentration of addition of each test compound is shown as a relative amount, said standard value taken as one (1). For each compound to be tested, various concentrations of addition were selected to investigate the dependency of MHC class-I molecule expression promoting action on the concentration of addition.

B16/BL6 cells [2] = test: Inhibitory effect on cell proliferation (MTS, 48 hours); assay type: cell-based, mouse; conditions: 48 hours after addition; read-out: 50% inhibiting concentration
Description: (§1) In order to verify the action of the cyclic tetrapeptide derivative according to the present invention in inhibiting cell proliferation in cancerized cells, the action on the proliferation of the aforementioned B16/BL6 cells was investigated. The evaluation of cell proliferation rates was done utilizing a commercially available measuring kit, specifically, from Promega under the trade name CellTiter 96 Aqueous Non-Radioactive Proliferation Assay Kit. In the measuring kit, the amount of products through reduction of a reagent tetrazolium compound (3-(4,5-dimethylthiazol-2-yl)-5-(3-carboxymethoxyphenyl)-2-(4-sulfophenyl)-2H-tetrazolium, inner salt; MTS) by viable animal cells is determined by detecting spectrophotometrically the color generated from the products. Since the amount of products is proportional to the amount of viable cells, this kit is utilized to evaluate the amount of viable cells.
(§2) According to the procedure of Test Example 1, B16/BL6 cells are inoculated in a 96 well microplate and cultured for 24 hours. Then, 10 μl of a solution of the source solution of a compound to be tested which has been diluted to a predetermined amount per well is added. Thereafter, culture is continued for additional 48 hours and 20 μl of a reagent solution in the aforementioned CellTiter 96 Aqueous Non-Radioactive Proliferation Assay Kit is then added. After incubation is continued at 37° C. for 1 hour, the amount of color generation is measured as an absorbance at 490 n musing a microplate reader.
(§3) The amount of cell proliferation of a group to which a compound to be tested is added is expressed in a relative value as compared to the standard cell proliferation (100%) in a control group to which no compound to be tested is added. For each compound tested, the amounts of cell proliferation were measured at different concentrations of addition and the dependence of the quantitative cell proliferation on the concentration of addition was investigated. From the results, a concentration of addition at which the amount of cell proliferation was inhibited by 50% relative to the amount of cell proliferation in the control group without addition was determined.

[3] = system: colon cancer Colon26 cell line; test: Cell proliferation inhibition (72 hours); assay type: cell-based, mouse; conditions: read-out: 50% proliferation inhibiting concentration Colon 26 (nM) mean
Description: as §1, §2, §3
(§4) The test method was in accordance with the above-mentioned procedure, except that the period of incubation after the addition of a compound was 72 hours.
(§5) As illustrative examples, results are shown for an evaluation using mouse malignant melanoma B16/BL6 and B16 cell lines; leukemia L1210 cell line, colon cancer Colon26 cell line, and liver cancer MH134 cell line as cancer cells. For the cell proliferation inhibiting action of each compound tested for these cancer cells, 50% proliferation inhibiting concentrations are shown in Table 4.

leukemia L1210 cell line = test: Cell proliferation inhibition (72 hours); assay type: cell-based, mouse; conditions: read-out: 50% proliferation inhibiting concentration L1210 (nM) mean
Description: as §1, §2, §3, §4, §5

[4] = system: liver cancer MH134 cell line; test: Cell proliferation inhibition (72 hours); assay type: cell-based, mouse; conditions: read-out: 50% proliferation inhibiting concentration MH134 (nM) mean
Description: as §1, §2, §3, §4, §5

[5] = system: mouse malignant melanoma B16/BL6 cell line; assay type: cell-based; conditions: 72 hours; read-out: 50% proliferation inhibiting concentration B16/BL6 (nM) mean
Description: as §1
as §2, with “Then, 10 μl of a solution of the source solution of a compound to be tested which has been diluted to a predetermined amount per well is added.” left out
as §3, with “investigated.” for “investigated. From the results, a concentration of addition at which the amount of cell proliferation was inhibited by 50% relative to the amount of cell proliferation in the control group without addition was determined.”
as §4

[6] = system: mouse malignant melanoma B16 cell line; test: Cell proliferation inhibition (72 hours); assay type: cell-based; conditions: read-out: 50% proliferation inhibiting concentration B16 (nM) mean
Description: as §1, §2, §3, §4, §5

[7] = biological target: Mouse histone deacetylase; assay type: biochemical
Method: In an enzyme system using a radio-labelled acetylated histone as a substrate, histone deacetylase enzyme inhibiting activity was evaluated. The basic conditions were in accordance with the method of Yoshida et al. (J. Biol. Chem., 265, 17174-17179, 1990).
Mouse histone deacetylase to be used was partially purified from FM3A cells. Cells were suspended in HDA buffer (15 mM potassium phosphate, 5% glycerol, 0.2 mM EDTA, pH 7.5), homogenized and centrifuged (35000×g, 10 min) to collect the nuclei which in turn were homogenized in the same buffer containing 1 M (NH4)2SO4. After ultrasonic disruption and centrifugation, the concentration of (NH4)2SO4 in the supernatant was increased to 3.5 M to precipitate deacetylase enzyme proteins. This precipitate was redissolved in HDA buffer, dialyzed against HDA buffer, applied to DEAE-cellulose column and eluted in NaCl gradient. Active fractions were used as a histone deacetylase enzyme solution.
As a substrate, [^3H]acetyl histone was used. In a culture solution of FM3A cells in the presence of 5 mM sodium n-butyrate, [^3H]acetate was added, followed by incubation for 30 minutes to radio-label the histone. The histone was prepared in a conventional manner and used as a substrate solution.
An assay was performed by adding a compound to be tested at a given concentration while using a no-addition control group, and by incubating the substrate solution and the enzyme solution at 37° C. for 10 minutes (reaction volume, 100 μl). The enzyme reaction was stopped by adding 10 μl of concentrated hydrochloric acid and the excised [^3H]acetate was extracted with ethyl acetate for radioactivity measurement. The inhibiting activity was expressed by a concentration at which the enzyme activity in the control group was inhibited by 50% (50% inhibiting concentration).

histone deacetylase = test: Histone deacetylase enzyme inhibiting activity, synthetic peptide substrate; assay type: biochemical, mouse; conditions: enzyme from B16/BL6 cells; [3H]acetylated histone H4 peptide; 37° C. 3 hours
Method: The preparation of histone deacetylase was performed essentially according to the method of Yoshida et al. (J. Biol. Chem., 265,17174-17179, 1990). The enzyme to be used was partially purified from B16/BL6 cells. The cells were suspended in HDA buffer (15 mM potassium phosphate, 5% glycerol, 0.2 mM EDTA, […], pH 7.5), homogenized and centrifuged (2500×g, 10 min) to collect the nuclei, which in turn were homogenized in the same buffer containing 1 M (NH4)2SO4. After ultrasonic disruption and centrifugation, the concentration of (NH4)2SO4 in the collected supernatant was increased to 3.5 M to precipitate histone deacetylase. This precipitate was redissolved in HDA buffer, subjected to gel filtration to replace the solvent with HDA buffer, and used as a crude histone deacetylase enzyme solution.
As a substrate, a synthetic substrate peptide, [^3H]acetylated histone H4 peptide was used. This [^3H]acetylated histone H4 peptide was obtained by synthesizing the N-terminal peptide of histone H4; […] (the C-terminal being cysteine) and radio-acetylating with ^3H -acetic anhydride.
An assay was performed by incubating the synthetic substrate solution and the enzyme solution at 37° C. for 3 hours in the presence of a compound to be tested (reaction volume, 100 μl). The reaction was stopped by adding 25 μl of 1 M HCl and 0.2 M acetic acid and [^3H]acetate excised by the enzyme reaction was extracted with ethyl acetate for radioactivity measurement. As a control group, the same procedure was repeated without addition of any test compound to the reaction system. The inhibiting activity was expressed by a concentration at which the histone deacetylase enzyme activity in the control group was inhibited by 50% (50% inhibiting concentration).

[8] = enzyme from FM3A cells, [3H]acetyl histone, 37° C. 10 minutes

SMILES | MHC class-I molecule expression promoting action (B16/BL6 cells [1]) | Twice Promoting Concentration Cx2 (B16/BL6 cells [1]) [nM] | conc. for 2-fold expression (nM) mean (B16/BL6 cells [1]) [nM] | IC50 (B16/BL6 cells [2]) [nM] | IC50 [3] [nM] | IC50 (leukemia L1210 cell line) [nM] | IC50 [4] [nM] | IC50 [5] [nM] | IC50 [6] [nM] | IC50 [7] [nM] | IC50 (histone deacetylase) [nM] | IC50 [7, 8] [nM] | MHC class-I molecule expression promoting activity (B16/BL6 cells [1]; allowed to act on animal cells (summary statement))
CC1(C)NC(=O)[C@H](CCCCCC(=O)NO)NC(=O)[C@H]2CCCN2C(=O)[C@H](Cc2ccccc2)NC1=O [HDA-15, cyclo(-Asu(NHOH)-Aib-Phe-D-Pro-)] (cyclo([Aib]F[dP][Asu](NHOH))) | exhibited MHC class-I molecule expression promoting action | 36.2 | 33.2 | 92.5 | 908 | 193 | 946 | 110 | 1230 | – | – | – | –
O=C(CCCCC[C@@H]1NC(=O)[C@H]2CCCN2C(=O)[C@H](Cc2ccccc2)NC(=O)[C@@H](Cc2ccccc2)NC1=O)NO [HDA-27, cyclo(-L-Asu(NHOH)-D-Phe-L-Phe-D-Pro-)] (cyclo([Asu](NHOH)[dF]F[dP])) | – | – | 3.01 | – | 277 | 53 | 236 | 18 | 309 | 1.45 | 3.44 | – | –
CC(C)C[C@@H]1NC(=O)[C@@H](Cc2ccccc2)NC(=O)[C@H](CCCCCC(=O)NO)NC(=O)[C@@H]2CCCN2C1=O [HDA-28, cyclo(-L-Asu(NHOH)-D-Phe-L-Leu-L-Pro-)] (cyclo([Asu](NHOH)[dF]LP)) | – | – | 80.2 | – | 7370 | 1330 | 4830 | 470 | 3820 | – | – | 6.04 | –
CC(=O)NCCCC[C@@H]1NC(=O)[C@H]2CCCN2C(=O)[C@H](Cc2ccccc2)NC(=O)[C@H](Cc2ccccc2)NC1=O [HDA-6, cyclo(-L-Lys(Ac)-L-Phe-L-Phe-D-Pro-)] (cyclo(FF[dP]K(Ac))) | – | – | 240000 | – | – | – | – | – | – | – | – | 27800 | –
O=C1N[C@@H](Cc2ccccc2)C(=O)N2CCCC[C@@H]2C(=O)N[C@@H](CCCCCC(=O)[C@@H]2CO2)C(=O)N[C@H]1Cc1ccccc1 [trapoxin A, reference compound] (cyclo([Aoe]FF[dPip])) | – | – | 3.59 | – | – | – | – | – | – | – | – | 0.47 | exhibit the MHC class-I molecule expression promoting activity
O=C(CCCCCC[C@@H]1NC(=O)[C@H]2CCCN2C(=O)[C@H](Cc2ccccc2)NC(=O)[C@H](Cc2ccccc2)NC1=O)NO [HDA-17, cyclo(-Aaz(NHOH)-Phe-Phe-D-Pro-)] | exhibited MHC class-I molecule expression promoting action | 1120 | 990 | – | 29300 | 7380 | 19900 | 1260 | 23500 | – | 24.7 | 19.8 | –
O=C(CCCC[C@@H]1NC(=O)[C@H]2CCCN2C(=O)[C@H](Cc2ccccc2)NC(=O)[C@H](Cc2ccccc2)NC1=O)NO [HDA-18, cyclo(-Api(NHOH)-Phe-Phe-D-Pro-)] | exhibited MHC class-I molecule expression promoting action | 11600 | 10900 | – | > 100000 | > 100000 | > 100000 | 59300 | > 100000 | – | 150 | 390 | –
CC(C)C[C@@H]1NC(=O)[C@@H](Cc2ccccc2)NC(=O)[C@H](CCCCCC(=O)NO)NC(=O)[C@H]2CCCN2C1=O [HDA-29, cyclo(-L-Asu(NHOH)-D-Phe-L-Leu-D-Pro-)] (cyclo([Asu](NHOH)[dF]L[dP])) | – | – | 5.41 | – | 198 | 43.8 | 176 | 15.8 | 293 | – | – | 1.59 | –
C[C@@H]1NC(=O)[C@H]2CCCN2C(=O)[C@H](CCCCCC(=O)NO)NC(=O)[C@@H](C)NC1=O [HDA-13, cyclo(-L-Asu(NHOH)-D-Pro-L-Ala-D-Ala-)] (cyclo(A[dA][Asu](NHOH)[dP])) | – | – | 406 | – | 11000 | 2770 | 7920 | 866 | 15400 | – | – | – | –
CCCC(=O)[O-].[Na+] [Sodium n-butyrate, reference compound] | – | – | – | – | – | – | – | – | – | 119000 | – | – | –
CC(C)(C)OC(=O)NCCCC[C@@H]1NC(=O)[C@H](CCCCCC(=O)NO)NC(=O)[C@H]2CCCN2C(=O)[C@H](Cc2ccccc2)NC1=O [HDA-32, cyclo(-L-Asu(NHOH)-L-Lys(Boc)-L-Phe-D-Pro-)] (cyclo([Asu](NHOH)K(Boc)F[dP])) | – | – | 773 | – | – | – | – | – | – | – | – | 4.95 | –
